Where two headings read alike, the source gives them in different places. Where a SMILES comes first, the peptide text is derived from it. Where no end group is shown, it is not given here. [ ]: non-standard residue; d: D form. Phe(4-Cl) = N[C@@H](Cc1ccc(Cl)cc1)C(=O)O

The target in data set [1] is T1, human renin (Homo sapiens, UniProt P00797).
T1 sequence (P00797 67-406): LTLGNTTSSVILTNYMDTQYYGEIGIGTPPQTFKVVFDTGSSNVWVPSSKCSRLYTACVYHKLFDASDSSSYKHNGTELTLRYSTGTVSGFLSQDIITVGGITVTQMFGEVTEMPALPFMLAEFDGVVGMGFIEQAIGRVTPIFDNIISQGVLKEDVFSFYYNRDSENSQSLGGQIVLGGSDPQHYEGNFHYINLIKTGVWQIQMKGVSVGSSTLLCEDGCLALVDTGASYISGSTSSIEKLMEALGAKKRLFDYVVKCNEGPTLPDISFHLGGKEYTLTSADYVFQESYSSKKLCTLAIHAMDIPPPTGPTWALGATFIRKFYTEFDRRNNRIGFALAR
As to the kind of experiment: IC50 on human renin, angiotensin I generation from tetradecapeptide renin substrate (assay of Burton et al). Format: biochemical. The method, then:
The assay for testing the inhibitory activities of the pentapeptides on renin is described in Burton, J. et al, Biochem. 14: 3892-3898 (1975), which is herein incorporated by reference.
The 11 pentapeptides shown in Table I were synthesized by standard solid phase peptide synthesis as shown in the description following the table and the IC50 (concentration at which inhibition is 50%) value on human renin in the assay of Burton et al, supra, was determined for each sample.
Angiotensin I standards and tetradecapeptide renin substrate (TDP) were obtained from Peninsula Laboratories Inc. (San Mateo, CA). Renin was a gift of Dr. E. Slater (1980). Angiotensin I concentration was determined by radioimmunoassay using a commercially available kit (Clinical Assays, Cambridge, MA).
Standard renin solution (V3) is diluted 4-fold with M Tris-lysozyme buffer (pH 7.40). Concentration of […] of the renin inhibitor being tested are also prepared in the Tris-lysozyme buffer. For the uninhibited reaction Tris-lysozyme buffer alone is used in place of the inhibitor solution.
Reaction mixtures containing TDP solution ([…], 25 µM), renin solution (50 liters, 20-fold diluted), and the inhibitor (50 liters, 50-1000 M) were incubated for 1 hr at 37°, diluted 1000-fold and assayed for angiotensin I.
Inhibition is determined by the following equation:
% Inh.=((ng ANG Iunhib -ng ANG Iinh)/ng ANG
IC50 is determined by plotting Percent inhibition (% Inh.) against the inhibitor concentration and interpolating to determine the molarity of inhibitor at which 50% inhibition is observed.
Cross-reactivity of TDP with ANG I is less than 0.05%.

Data set [2] has as its system renin dependent hypertension. Nature of the data set: Acute renovascular hypertension model, inflatable aortic cuff, monkey. Format: in vivo, Macaca fascicularis. To be noted: one monkey, cuff inflated. Here is the method: The animal model of acute renovascular hypertension is prepared by surgically implanting an inflatable cuff about the aorta above the left kidney of an adult Macaca fascicularis as descirbed by Cody, R. J. et al (1980) Hypertension. The right kidney is subsequently removed and catheters implanted in the right iliac vein and artery. Two arterial catheters lead from above and below the constricting cuff to strain gauges permit blood pressure to be measured both above and below the cuff.
Inflation of the cuff creates a measurable amount of ischemia to the remaining kidney and renin dependent hypertension develops in about one hour.
The results of the injection of (RI-78) on the blood pressure and plasma renin level of one monkey are summarized below. The converting enzyme inhibitor teprotide (Ondetti et al, 19) is used as a control.

Data set [3] has as its system isolated gut section. As to the kind of experiment: In vitro transport of radiolabeled pentapeptide across isolated gut section. Format: in vitro ADME. To be noted: radiolabeled pentapeptide added to one side of an isolated gut section, label measured on the other side. The text has this:
Of particular interest is the fact that the peptides of the present invention are short chained, and can potentially be used as orally active peptides.

Data set [4] deals with renin. To be noted: pH 7.4; Poulsen et al 1973; read-out: inhibitory constant (KI); cited from earlier work.
The mark [5] stands for this setting: IC50 (concentration at which inhibition is 50%), Table I, human renin.
Setting [6] is: IC50, TDP substrate, pH 7.40, 1 hr at 37°.
Where [7] appears, read: Table I, human renin, read-out: IC50 (concentration at which inhibition is 50%).
Where [8] appears, read: printed with the characterisation data of each peptide, TDP substrate, pH 7.40, 1 hr at 37°, read-out: IC50.
Where [9] appears, read: time 145 min, injection of teprotide (control).

As to “FFVYK-NH2 [RI-77, Phenylalanylphenylalanylvalyltyrosyllysine-amide]”, the IC50 in data set [1] (setting [5]) came out at 80 µM. On to `CC(C)[C@H](NC(=O)[C@H](Cc1ccccc1)NC(=O)[C@@H](N)Cc1ccc(Cl)cc1)C(=O)N[C@@H](Cc1ccc(O)cc1)C(=O)N[C@@H](CCCCN)C(N)=O` [RI-78, 4-chlorophenylalanylphenylalanylvalyltyrosyllysine-amide] (H-[Phe(4-Cl)]FVYK-NH2), for which the IC50 in data set [1] (setting [5]) and in data set [1] (setting [6]) was 70 µM in each case. The “Blood Pressure” value in data set [2] (time 0 min, injection 0.5 mg RI-78) is given as 113 mm Hg; in data set [2] (time 10 min, injection 2.5 mg RI-78), 65 mm Hg; in data set [2] (time 25 min (15 min after 2.5 mg RI-78), no further injection) it was 111 mm Hg. Moreover, in data set [2] (time 30 min (20 min after 2.5 mg RI-78), no further injection), the “Plasma Renin Activity” value worked out at 28.5. With `CC(C)[C@H](NC(=O)[C@H](Cc1ccc(Cl)cc1)NC(=O)[C@@H](N)Cc1ccccc1)C(=O)N[C@@H](Cc1ccc(O)cc1)C(=O)N[C@@H](CCCCN)C(N)=O` [RI-80, Phenylalanyl-4-chlorophenylalanylvalyltyrosyllysineamide] (H-F[Phe(4-Cl)]VYK-NH2), the IC50 in data set [1] (setting [7]) worked out at 40 µM. Further, in data set [3], the “transport across the gut” value is “transported across the gut”. “FYVYK-NH2 [RI-81, Phenylalanyltyrosylvalyltyrosyllysine-amide]”: the IC50 is 80 µM in data set [1] (setting [5]) and 150 µM in data set [1] (setting [6]). As for “YFVYK-NH2 [RI-79, Tyrosylphenylalanylvalyltyrosyllysine-amide]”, the IC50 came to 140 µM in data set [1] (setting [7]) and 50 µM in data set [1] (setting [8]). The like results for “Phenylalanylphenylalanyl-threo-3-chloro-L-2-amino-butyryltyrosyllysine amide [RI-82]” were, in that order, 1250 µM and 2450 µM. On to Leu-Leu-Val-TyrH2, for which the Ki in data set [4] was 1020 µM. As for “FFTYK-NH2 [RI-83, Phenylalanylphenylalanylthreonyltyrosyllysine-amide]”, the IC50 in data set [1] (setting [5]) worked out at 3750 µM. For the compound `CC(C)[C@H](NC(=O)[C@H](Cc1ccccc1)NC(=O)[C@@H](N)Cc1ccccc1)C(=O)N[C@@H](Cc1ccc(Cl)cc1)C(=O)N[C@@H](CCCCN)C(N)=O` [RI-85, Phenylalanylphenylalanylvalyl-4-chlorophenylalanyllysine-amide] (H-FFV[Phe(4-Cl)]K-NH2), the IC50 in data set [1] (setting [5]) was ~100 µM; in data set [1] (setting [6]), 175 µM. Take “FFVFK-NH2 [RI-84, Phenylalanylphenylalanylvalylphenylalanyllysine-amide]”: the IC50 in data set [1] (setting [5]) stood at 750 µM. Consider `CC[C@H](C)[C@H](NC(=O)[C@H](CCC(N)=O)NC(=O)[C@@H]1CCCN1C(=O)[C@H](CCCNC(=N)N)NC(=O)[C@@H]1CCCN1C(=O)[C@H](Cc1c[nH]c2ccccc12)NC(=O)[C@@H]1CCC(=O)N1)C(=O)N1CCC[C@H]1C(=O)N1CCC[C@H]1C(=O)O` [Teprotide, teprotide, reference compound], for which, in data set [2] (setting [9]), the “Blood Pressure” value stood at 76 mm Hg and the “Plasma Renin Activity” value is given as ≥ 37. For `COc1ccc(C[C@H](NC(=O)[C@@H](N)Cc2ccccc2)C(=O)N[C@H](C(=O)N[C@@H](Cc2ccc(O)cc2)C(=O)N[C@@H](CCCCN)C(N)=O)C(C)C)cc1` [RI-102, Phenylalanyl-O-methyltyrosylvalyltyrosyllysine-amide] (H-FY(Me)VYK-NH2), in data set [1] (setting [5]), the IC50 came to 190 µM.

Usually Ki stands for a dissociation constant, usually derived from enzyme kinetics or from competition with a known ligand.

Source of the values: patent US4455303A, “Renin inhibitors” (priority 1983, dated 1984).
